Test results taken from patent US20070190004A1, “Substances with a probiotic action used in deodorants” (priority 2004, published 2007).

Assays:
Staphylococcus hominis = assay: Growth of S. hominis in LB liquid culture with test substance, OD (600 nm) versus control; type: cell-based; conditions: for Growth effect, promoting or inhibiting factor compared to the control: S. hominis
Protocol: (§1) From liquid precultures of S. epidermidis and S. hominis, cultures in LB medium with an optical density OD (600 nm) of 0.05 were inoculated. In parallel to the controls (without the addition of cells or extract), in each case 2 cultures were treated with 1% plant extract and the growth was documented over 30 h by reference to the OD measurement. After 30 h, the difference in the OD of the cultures with extract additive to the corresponding controls (without extract additive, corrected by the value without cells) was determined.
(§2) From liquid precultures of S. epidermidis and S. hominis, cultures in LB medium with an optical density OD (600 nm) of 0.05 were inoculated. In parallel to the controls (without the addition of cells or extract), in each case 2 cultures were treated with 1% plant extract and the growth was documented over 30 h by reference to the OD measurement. After 30 h, the difference in the OD of the cultures with extract additive to the corresponding controls (without extract additive, corrected by the value without cells) was determined. Various hibiscus extracts from Cosmetochem were used, namely “herbasol extract unpreserved carcade in 80% PG,” “carcade (hibiscus) herbasec” and “carcade (hibiscus) herbasol extract oil-soluble.”
as §1, with “myristate),” for “extract),”, “myristate derivative” for “plant extract”, “8” for “30”, “myristate” for “extract”
(§3) From liquid precultures of S. epidermidis and S. hominis, cultures in LB medium with an optical density OD (600 nm) of 0.05 were inoculated. In parallel to the controls [without the addition of cells or ethylhexyl glycerol (Sensiva SC 50, Schülke&Mayr)], in each case 2 cultures were treated with 0.1% ethylhexyl glycerol and the growth was documented over 24 h by reference to the OD measurement. After 4 h, 8 h and 24 h, the difference in the OD of the cultures with ethylhexyl glycerol to the corresponding controls (without extract additive, corrected by the value without cells) was determined.

[1] = tested on: Staphylococcus epidermidis; assay: Growth of S. epidermidis in LB liquid culture with test substance, OD (600 nm) versus control; type: cell-based; conditions: for Growth effect, promoting or inhibiting factor compared to the control: S. epidermidis
Protocol: as §1, §2
as §1, with “myristate),” for “extract),”, “myristate derivative” for “plant extract”, “8” for “30”, “myristate” for “extract”
as §3

[2] = 1% myristate derivative, after 8 h, LB medium, OD 600 nm

SMILES	Effect on growth of S. hominis (in words) (Staphylococcus hominis; 1% myristate derivative, 8 h)	Growth effect, promoting or inhibiting factor compared to the control (Staphylococcus hominis; [2])	Effect on growth of S. epidermidis (in words) ([1]; 1% myristate derivative, 8 h)	Growth effect, promoting or inhibiting factor compared to the control [1, 2]	Effect on growth of S. hominis (in words) (Staphylococcus hominis; 0.1% ethylhexyl glycerol, up to 24 h)	Growth effect, promoting or inhibiting factor compared to the control (Staphylococcus hominis; 0.1% ethylhexyl glycerol, 4 h)	Growth effect, promoting or inhibiting factor compared to the control (Staphylococcus hominis; 0.1% ethylhexyl glycerol, 8 h)	Growth effect, promoting or inhibiting factor compared to the control (Staphylococcus hominis; 0.1% ethylhexyl glycerol, 24 h)	Growth effect, promoting or inhibiting factor compared to the control ([1]; 0.1% ethylhexyl glycerol, 4 h)	Growth effect, promoting or inhibiting factor compared to the control ([1]; 0.1% ethylhexyl glycerol, 8 h)	Growth effect, promoting or inhibiting factor compared to the control ([1]; 0.1% ethylhexyl glycerol, 24 h)
CCCCCCCCCCCCCC(=O)OCC [Ethyl myristate, ethyl myristate]	inhibiting action on S. hominis	0.22	moderate promotion of S. epidermidis	1.44	–	–	–	–	–	–	–
CCCCCCCCCCCCCC(=O)OC(C)C [Isopropyl myristate, isopropyl myristate]	inhibiting action on S. hominis	0.50	moderate promotion of S. epidermidis	1.24	–	–	–	–	–	–	–
CCCCC(CC)COCC(O)CO (stereo not drawn) [ethylhexyl glycerol, 1-(2-Ethylhexyl) glycerol ether]	–	–	–	–	inhibits S. hominis	0.87	0.92	0.76	1.06	1.06	1.10
